“Also recorded” adds a separate entry of the source. Read-outs that look alike come from different tables or passages of the source.
Tested on: AMPA-R
Assay: Whole-cell patch clamp recording in acute PFC slices (AMPA-R-mediated EPSPs)
Format: cell-based, rat
Parameters: key to Synaptic EPSP response: -: No effect or slight effect; +: Potent; ++: Very potent
Details: for Spike number and EPSP duration after switch from LY451646 (30 μM): 10 μM; for Synaptic EPSP response: summary grade
Method: Coronal PFC slices were prepared from male Sprague–Dawley rats (10- to 14-day-old). The slices including layer V PFC pyramidal neurons were perfused at a flow rate of 1–2 ml/min with recording aCSF containing the following: 124 mM NaCl, 5 mM KCl, 1.2 mM NaH2PO4, 1.5 mM MgCl2, 2.5 mM CaCl2, 10 mM glucose, 24 mM NaHCO3 bubbled with carbogen (95% O2; 5% CO2). Current clamp recordings at holding potential of approximately − 65 mV with constant current were carried out at 32–33 °C using a pipette filled with an intracellular solution consisting of: 140 mM K-gluconate, 4 mM KCl, 10 mM HEPES, 0.2 mM EGTA, 4 mM MgATP, 0.3 mM Na2GTP, pH 7.3 with KOH in the presence of bicuculline (20 μM), CGP52422 (10 μM), and APV (50 μM) to block GABAA and B and NMDA receptors, respectively. Methods are described in the Supplementary Information.
Coronal prefrontal cortex (PFC) slices were prepared from male Sprague-Dawley rats (10- to 14-day-old). Animals were sacrificed following acute decapitation, and their brain was quickly removed and placed in an ice-cold modified artificial cerebrospinal fluid (aCSF) of the following composition: 92 mM N-methyl-D-glucamine (NMDG), 2.5 mM KCl, 1.25 mM NaH2PO4, 30 mM NaHCO3, 20 mM HEPES, 25 mM glucose, 2 mM thiourea, 5 mM Na-ascorbate, 3 mM Na-pyruvate, 0.5 mM CaCl2, and 10 mM MgSO4. The pH of the solution was titrated to 7.3-7.4 with concentrated HCl. Coronal slices were cut at a thickness of 300 μm with using a linear slicer PRO7 (Dosaka EM, Kyoto, Japan). Slices were initially recovered for ≤ 15 min at 34°C and then transferred to a holding chamber containing HEPES holding aCSF (92 mM NaCl, 2.5 mM KCl, 1.25 mM NaH2PO4, 30 mM NaHCO3, 20 mM HEPES, 25 mM glucose, 2 mM thiourea, 5 mM Na-ascorbate, 3 mM Na-pyruvate, 2 mM CaCl2 and 2 mM MgSO4) at room temperature for at least 1 h before starting the recording. The slices were then transferred to the recording chamber mounted on a FN1 microscope (Nikon, Tokyo, Japan), in which they were submerged and perfused at a flow rate of 1-2 ml/min with recording aCSF containing the following: 124 mM NaCl, 5 mM KCl, 1.2 mM NaH2PO4, 1.5 mM MgCl2, 2.5 mM CaCl2, 10 mM glucose, 24 mM NaHCO3. All aCSF solutions were continuously bubbled with carbogen (95% O2; 5% CO2). Differential interference contrast (DIC) microscopy (C10639, Hamamatsu, Japan) was used to visualize pyramidal neurons in the PFC. Patch pipettes (5-6 MΩ) were prepared from borosilicate capillary glass using a micropipette puller PC-10 (NARISHIGE, Tokyo, Japan). Current clamp recordings were carried out at 32-33°C using a pipette filled with intracellular solution consisting of: 140 mM K-gluconate, 4 mM KCl, 10 mM HEPES, 0.2 mM EGTA, 4 mM MgATP, 0.3 mM Na2GTP, pH 7.3 with KOH in the presence of bicuculline (20 μM), CGP52422 (10 μM), and APV (50 μM) to block GABAA and B and NMDA receptors, respectively. Signals were recorded using a Multiclamp 700B amplifier (Molecular Devices, LLC, Orleans Drive Sunnyvale, CA), digitized using a Digidata 1440A interface board, filtered between 2 kHz, sampled at 10 kHz, and analyzed with pClamp10 software. Layer V PFC pyramidal neurons were recorded at holding potential of approximately –65 mV with constant current. A hyperpolarizing step (–20 pA) prior to each stimulation was used to monitor any changes in access resistance. Postsynaptic potentials were evoked by constant current single stimulation pulses (100 μs, 10-100 μA) delivered with a 20-s interstimulus interval using monopolar stimulating electrodes positioned in layer I.

| SMILES | Membrane potentials of recorded neurons | Spike number and EPSP duration after switch from LY451646 (30 μM) | Suprathreshold response (10 μM for 10 min) | Spike number and EPSP duration after switch from LY451646 (30 μM) (listed as TAK653) | Suprathreshold polysynaptic EPSPs (evoked spikes, EPSP duration) (0.3 to 30 μM, 10 min bath application) | Synaptic EPSP response | Membrane potentials of recorded neurons (0.3 μM) | Polysynaptic EPSP duration and evoked spike number (0.3 μM, 5 min, membrane held at −65 mV) |
| --- | --- | --- | --- | --- | --- | --- | --- | --- |
| CC1=CN2CCS(=O)(=O)N=C2C(c2ccc(OC3CCCCC3)cc2)=N1 [TAK-653, 9-[4-(Cyclohexyloxy)phenyl]-7-methyl-3,4-dihydropyrazino[2,1-c][1,2,4]thiadiazine 2,2-dioxide] | did not increase | a clear increase | enhanced the suprathreshold response | further augmentation of spike number | enhanced | ++ | – | – |
| Cc1onc(O)c1CC(N)C(=O)O (stereo not drawn) [AMPA, alpha-amino-3-hydroxy-5-methyl-4-isoxazole-propionic acid] | – | – | – | – | – | ─ | increased | reduced; also recorded: diminished the suprathreshold response |
